The values below come from patent US7968577B2 (Bristol-Myers Squibb Company, priority 2006, dated 2011).

For the test, the system named is AP-1 induced transcriptional activity. Description: Cellular Transrepressional Assay: AP-1 luciferase reporter in PMA-activated A549 cells. As to conditions: for Emax: A549, 7 h, read-out: AP-1 Max % inh (Cellular Transrepression Assay). Type of test: cell-based. The method, then: Cellular Transrepressional Assay
To measure the ability of test molecules to inhibit AP-1 induced transcriptional activity we utilized an A549 cell which was stably transfected with a plasmid containing 7× AP-1 DNA binding sites (pAP-1-Luc plasmid, Stratagene Co. La Jolla, Calif.) followed by the gene for luciferase. Cells were activated with 10 ng/ml of […] (PMA) plus or minus test molecules for 7 hours. After 7 hours a luciferase reagent was added to measure luciferase enzymatic activity in the cell. After a 10 minute incubation of luciferase reagent with cells, luminescence was measured in a TopCount luminescence counter. Repression of AP-1 activity was calculated as the percentage decrease in the signal induced by PMA alone. Test molecules were analyzed in the concentration range from 0.1 nM to 40 μM. EC50s were determined by using standard curve fitting methods such as Excel fit (Microsoft Co.).

Setting [1] is: Homo sapiens, maximum inhibition, Cellular Transrepression Assay.
Setting [2] is: Homo sapiens, A549, Cellular Transrepression Assay.

Molecules are shown by their SMILES.

Turning to `COc1ccc(Cc2csc(NC(=O)C(C)(C)C(c3ccccc3)c3ccccc3)n2)cc1` [Example 297, 2,2-dimethyl-N-(4-((4-(methyloxy)phenyl)methyl)-1,3-thiazol-2-yl)-3,3-diphenylpropanamide], the Emax under setting [1] was 77.3%. In addition, the EC50 under setting [2] is 262 nM.

Turning to `COc1ccc(Cc2csc(NC(=O)C(C)(C)C(c3ccccc3)c3cccc(OC)c3)n2)cc1` (stereo not drawn) [Example 298, 2,2-dimethyl-3-(3-(methyloxy)phenyl)-N-(4-((4-(methyloxy)phenyl)methyl)-1,3-thiazol-2-yl)-3-phenylpropanamide], the Emax under setting [1] was 78.7%. The molecule further registered an EC50 under setting [2] of 417 nM.

Take `CC(C)(C(=O)Nc1nc(Cc2ccc(-c3ccncc3)cc2)cs1)C(c1ccccc1)c1ccccc1` [Example 299, 2,2-dimethyl-3,3-diphenyl-N-(4-((4-(4-pyridinyl)phenyl)methyl)-1,3-thiazol-2-yl)propanamide]: the Emax under setting [1] worked out at 69.3%. Besides, under setting [2], the EC50 came out at 13.3 nM.

On to `CC(C)(C(=O)Nc1nc(Cc2ccc(-c3ccncc3)cc2)cs1)C(c1ccccc1)c1ccc(Br)cc1` (stereo not drawn) [Example 300, 3-(4-bromophenyl)-2,2-dimethyl-3-phenyl-N-(4-((4-(4-pyridinyl)phenyl)methyl)-1,3-thiazol-2-yl)propanamide], for which the Emax under setting [1] was 73.7%. Besides, under setting [2], the EC50 was 9.97 nM.

As to `CC(C)(C(=O)Nc1nc(Cc2ccc(-c3ccncc3)cc2)cs1)C(c1ccccc1)c1ccc(Cl)cc1` (stereo not drawn) [Example 301, 3-(4-chlorophenyl)-2,2-dimethyl-3-phenyl-N-(4-((4-(4-pyridinyl)phenyl)methyl)-1,3-thiazol-2-yl)propanamide], the Emax under setting [1] turned out to be 73.7%. Under setting [2], this molecule gave an EC50 of 10.2 nM.

With `CC(C)(C(=O)Nc1nc(Cc2ccc(-c3ccncc3)cc2)cs1)C(c1ccccc1)c1ccc(F)cc1` (stereo not drawn) [Example 302, 3-(4-fluorophenyl)-2,2-dimethyl-3-phenyl-N-(4-((4-(4-pyridinyl)phenyl)methyl)-1,3-thiazol-2-yl)propanamide], under setting [1], the Emax stood at 76.8%. This molecule returned an EC50 under setting [2] of 33.3 nM.

Take `CC(C)(C)c1ccc(C(c2ccccc2)C(C)(C)C(=O)Nc2nc(Cc3ccc(-c4ccncc4)cc3)cs2)cc1` (stereo not drawn) [Example 303, 3-(4-(1,1-dimethylethyl)phenyl)-2,2-dimethyl-3-phenyl-N-(4-((4-(4-pyridinyl)phenyl)methyl)-1,3-thiazol-2-yl)propanamide]: the Emax under setting [1] amounted to 75.7%. Under setting [2], this molecule had an EC50 of 16.6 nM.

For `COc1ccc(C(c2ccc(OC)cc2)C(C)(C)C(=O)Nc2nc(Cc3ccc(-c4ccncc4)cc3)cs2)cc1` [Example 304, 2,2-dimethyl-3,3-bis(4-(methyloxy)phenyl)-N-(4-((4-(4-pyridinyl)phenyl)methyl)-1,3-thiazol-2-yl)propanamide], under setting [1], the Emax came out at 74.5%. In addition, the EC50 under setting [2] came to 19.9 nM.

Turning to `COc1cccc(C(c2ccccc2)C(C)(C)C(=O)Nc2nc(Cc3ccc(-c4ccncc4)cc3)cs2)c1` (stereo not drawn) [Example 305, 2,2-dimethyl-3-(3-(methyloxy)phenyl)-3-phenyl-N-(4-((4-(4-pyridinyl)phenyl)methyl)-1,3-thiazol-2-yl)propanamide], the Emax under setting [1] stood at 84.2%. It took 22.5 nM to reach a half-maximal effect under setting [2] (EC50).

With `CC(C)(C(=O)Nc1nccs1)[C@@H](c1ccccc1)c1ccc(O)cc1` [Example 325, (3S)-3-(4-hydroxyphenyl)-2,2-dimethyl-3-phenyl-N-1,3-thiazol-2-ylpropanamide], under setting [1], the Emax was determined as 57.8%. Further, the response under setting [2] was half-maximal at 53.9 nM (EC50).

Take `CC(C)(C(=O)NC1CCCC1)[C@@H](c1ccccc1)c1ccc(O)cc1` [Example 335, (3S)-N-cyclopentyl-3-(4-hydroxyphenyl)-2,2-dimethyl-3-phenylpropanamide]: the Emax under setting [1] came out at 21.2%. For the same molecule, the EC50 under setting [2] came out at 9.32 nM.

For the molecule `CC(C)(C(=O)Nc1nncs1)[C@@H](c1ccccc1)c1ccc(O)cc1` [Example 339, (3S)-3-(4-hydroxyphenyl)-2,2-dimethyl-3-phenyl-N-1,3,4-thiadiazol-2-ylpropanamide], the Emax under setting [1] came out at 60.8%. Further, the EC50 under setting [2] is 30.5 nM.

Consider `CC(C)(C(=O)Nc1nncs1)[C@H](c1ccccc1)c1ccc(O)cc1` [Example 340, (3R)-3-(4-hydroxyphenyl)-2,2-dimethyl-3-phenyl-N-1,3,4-thiadiazol-2-ylpropanamide], for which, under setting [1], the Emax turned out to be 57%. Also, the EC50 under setting [2] was found to be 90.3 nM.

Molecule `CC(C)(C(=O)Nc1nccs1)C(c1ccccc1)c1ccc(O)c(F)c1` (stereo not drawn) [Example 345, 3-(3-fluoro-4-hydroxyphenyl)-2,2-dimethyl-3-phenyl-N-1,3-thiazol-2-ylpropanamide] had an EC50 (Cellular Transrepression Assay) of 35.2 nM. Under setting [1], the Emax amounted to 68.1%.

For the setting “Cellular Transrepression Assay”, `CC(C)(C(=O)Nc1nccs1)C(c1ccccc1)c1ccc(O)c(F)c1` (stereo not drawn) [Example 347, 3-(3-fluoro-4-hydroxyphenyl)-2,2-dimethyl-3-phenyl-N-1,3-thiazol-2-ylpropanamide] came in with an EC50 of 10.8 nM. The “AP-1 Max % inh (Cellular Transrepression Assay)” value (maximum inhibition, Cellular Transrepression Assay) stood at 55.26%.

`CC(C)(C(=O)Nc1nncs1)C(c1ccccc1)c1ccc(O)c(F)c1` (stereo not drawn) [Example 348, 3-(3-fluoro-4-hydroxyphenyl)-2,2-dimethyl-3-phenyl-N-1,3,4-thiadiazol-2-ylpropanamide]: the Emax under setting [1] was 54%. In addition, under setting [2], the EC50 was 120 nM.

For `CC(C)(C(=O)Nc1nccs1)[C@@H](c1ccccc1)c1ccc(O)c(Br)c1` [Example 350, (3S)-3-(3-bromo-4-hydroxyphenyl)-2,2-dimethyl-3-phenyl-N-1,3-thiazol-2-ylpropanamide], the Emax under setting [1] was 81.8%. A half-maximal response under setting [2] (EC50) required 15 nM.

`CC(C)(C(=O)Nc1nncs1)[C@@H](c1ccccc1)c1ccc(O)c(Br)c1` [Example 351, (3S)-3-(3-bromo-4-hydroxyphenyl)-2,2-dimethyl-3-phenyl-N-1,3,4-thiadiazol-2-ylpropanamide]: under setting [1], the Emax came out at 66%. The molecule further displayed an EC50 under setting [2] of 16.4 nM.

As to `COc1ccc(Cc2csc(NC(=O)C(C)(C)C(c3ccccc3)c3ccc(O)cc3)n2)cc1` (stereo not drawn) [Example 352], under setting [1], the Emax stood at 61.7%. For the same molecule, under setting [2], it took 118 nM to reach a half-maximal effect (EC50).

With `CC(C)(C(=O)Nc1nc(Cc2ccc(-c3ccncc3)cc2)cs1)C(c1ccccc1)c1ccc(O)cc1` (stereo not drawn) [Example 353, 3-(4-hydroxyphenyl)-2,2-dimethyl-3-phenyl-N-(4-((4-(4-pyridinyl)phenyl)methyl)-1,3-thiazol-2-yl)propanamide], the Emax under setting [1] amounted to 77.8%. Under setting [2], this molecule showed an EC50 of 100 nM.

Take `CC(C)(C(=O)Nc1nc(Cc2ccc(-c3ccncc3)cc2)cs1)[C@@H](c1ccccc1)c1ccc(O)cc1` [Example 354, 3-(4-hydroxyphenyl)-2,2-dimethyl-3-phenyl-N-(4-((4-(4-pyridinyl)phenyl)methyl)-1,3-thiazol-2-yl)propanamide]: the Emax under setting [1] was determined as 71.8%. The response under setting [2] was half-maximal at 158 nM (EC50).

As for `CC(C)(C(=O)Nc1nc(Cc2ccc(-c3ccncc3)cc2)cs1)C(c1ccc(O)cc1)c1ccc(O)cc1` [Example 356], the Emax under setting [1] came to 61.1%. Under setting [2], this molecule showed an EC50 of 736 nM.

Consider `CC(C)(C(=O)Nc1nc(Cc2ccc(-c3ccncc3)cc2)cs1)C(c1ccccc1)c1cccc(O)c1` (stereo not drawn) [Example 357], for which, under setting [1], the Emax amounted to 73.7%. Under setting [2], this molecule returned an EC50 of 144 nM.

Regarding `CC(C)(C(=O)Nc1nccs1)[C@@H](c1ccccc1)c1ccc(O)c(C#N)c1` [Example 359, (3S)-3-(3-Cyano-4-hydroxyphenyl)-2,2-dimethyl-3-phenyl-N-1,3-thiazol-2-ylpropanamide], under setting [1], the Emax is 65.2%. Further, under setting [2], the EC50 is 278 nM.

Take `CC(=O)Oc1ccc([C@H](c2ccccc2)C(C)(C)C(=O)Nc2nccs2)cc1` [Example 361, 4-((1S)-2,2-dimethyl-3-oxo-1-phenyl-3-(1,3-thiazol-2-ylamino)propyl)phenyl acetate]: the Emax under setting [1] is 36.4%. Under setting [2], the EC50 turned out to be 13.3 nM.

In the case of `CC(C)(C(=O)Nc1nccs1)[C@@H](c1ccccc1)c1ccc(OC(=O)c2ccco2)cc1` [Example 362, 4-((1S)-2,2-dimethyl-3-oxo-1-phenyl-3-(1,3-thiazol-2-ylamino)propyl)phenyl 2-furancarboxylate], the Emax under setting [1] stood at 33.4%. This molecule also yielded an EC50 under setting [2] of 16.6 nM.

Regarding `CC(C)(C(=O)Nc1nccs1)[C@@H](c1ccccc1)c1ccc(OC(=O)c2ccoc2)cc1` [Example 364, 4-((1S)-2,2-dimethyl-3-oxo-1-phenyl-3-(1,3-thiazol-2-ylamino)propyl)phenyl 3-furancarboxylate], the Emax under setting [1] was 39.1%. Moreover, under setting [2], the EC50 is 184 nM.

In the case of `CC(C)(C(=O)Nc1nccs1)[C@@H](c1ccccc1)c1ccc(OC(=O)C2CCCO2)cc1` (stereo partly drawn) [Example 366, 4-((1S)-2,2-dimethyl-3-oxo-1-phenyl-3-(1,3-thiazol-2-ylamino)propyl)phenyl tetrahydro-2-furancarboxylate], the Emax under setting [1] stood at 32.6%. For the same molecule, the EC50 under setting [2] is 20 nM.

Turning to `CC(=O)c1ccc(C(c2ccccc2)C(C)(C)C(=O)Nc2nncs2)cc1` (stereo not drawn) [Example 369, 3-(4-acetylphenyl)-2,2-dimethyl-3-phenyl-N-1,3,4-thiadiazol-2-ylpropanamide], under setting [1], the Emax came to 34.9%. Also, under setting [2], the 50% effective concentration (EC50) turned out to be 819 nM.

As to `COc1ccc(-c2ccc(C(c3ccccc3)C(C)(C)C(=O)Nc3nccs3)cc2)cc1` (stereo not drawn) [Example 374, 2,2-Dimethyl-3-(4′-(methyloxy)-4-biphenylyl)-3-phenyl-N-1,3-thiazol-2-ylpropanamide], the Emax under setting [1] worked out at 39.7%. This molecule registered an EC50 under setting [2] of 121 nM.
